Results reported in ChEMBL document CHEMBL1201862, “PubChem BioAssay data set” (2004).
Calls of active or inactive are those of the source.

Assays:
Cytochrome P450 2C9 = Cytochrome P450 2C9 (Homo sapiens, UniProt P11712)
Cytochrome P450 2C19 = Cytochrome P450 2C19 (Homo sapiens, UniProt P33261); assay: Cytochrome panel assay with activity outcomes. Panel member name: p450-cyp2c19 Compounds with AC50 equal or less than 10 uM are considered active; type: functional
Cytochrome P450 3A4 = Cytochrome P450 3A4 (Homo sapiens, UniProt P08684);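 also: CYP3A4 tested as one member of a cytochrome P450 panel screen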
Chain of Cytochrome P450 3A4 (P08684 whole entry): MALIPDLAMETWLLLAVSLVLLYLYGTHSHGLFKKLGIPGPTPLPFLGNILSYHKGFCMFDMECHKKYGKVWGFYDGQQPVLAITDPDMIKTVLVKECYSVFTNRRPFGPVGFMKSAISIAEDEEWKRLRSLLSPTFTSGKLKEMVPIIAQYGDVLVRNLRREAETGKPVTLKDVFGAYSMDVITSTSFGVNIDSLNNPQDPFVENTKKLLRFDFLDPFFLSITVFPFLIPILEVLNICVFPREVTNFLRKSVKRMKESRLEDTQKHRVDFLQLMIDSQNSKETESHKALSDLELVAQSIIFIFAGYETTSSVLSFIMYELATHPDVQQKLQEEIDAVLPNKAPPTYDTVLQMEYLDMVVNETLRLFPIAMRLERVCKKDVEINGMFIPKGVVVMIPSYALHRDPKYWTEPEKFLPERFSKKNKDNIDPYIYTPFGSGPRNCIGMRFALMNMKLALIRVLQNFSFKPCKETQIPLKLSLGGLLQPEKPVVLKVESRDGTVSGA

[1] = biological target: FAD-linked sulfhydryl oxidase ALR (Homo sapiens, UniProt P55789); assay: inhibitors of human ALR sulfhydryl oxidase, dose response, biochemical, H2O2 detection, luminescence, cherry-pick (AID 493248)
Chain of FAD-linked sulfhydryl oxidase ALR (P55789 whole entry): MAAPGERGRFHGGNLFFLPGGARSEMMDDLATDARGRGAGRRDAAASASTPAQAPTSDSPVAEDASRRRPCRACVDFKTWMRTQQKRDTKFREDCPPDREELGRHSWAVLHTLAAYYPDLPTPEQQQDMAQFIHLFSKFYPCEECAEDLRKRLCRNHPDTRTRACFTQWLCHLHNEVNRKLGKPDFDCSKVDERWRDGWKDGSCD

[2] = biological target: T1, Heat shock factor protein 1 (Mus musculus, UniProt P38532); assay: HSF1 potentiators in luciferase reporter cells, confirmation, cell-based, NIH3T3, luminescence, dose retest (AID 435004); type: functional;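 also: stress induced by proteasome inhibitor MG132 added 30 min after compound; luciferase reporter driven by HSF1 response element in NIH3T3 cells; actives raise luminescence as potentiators of the MG132 stress response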
T1 sequence (P38532 whole entry): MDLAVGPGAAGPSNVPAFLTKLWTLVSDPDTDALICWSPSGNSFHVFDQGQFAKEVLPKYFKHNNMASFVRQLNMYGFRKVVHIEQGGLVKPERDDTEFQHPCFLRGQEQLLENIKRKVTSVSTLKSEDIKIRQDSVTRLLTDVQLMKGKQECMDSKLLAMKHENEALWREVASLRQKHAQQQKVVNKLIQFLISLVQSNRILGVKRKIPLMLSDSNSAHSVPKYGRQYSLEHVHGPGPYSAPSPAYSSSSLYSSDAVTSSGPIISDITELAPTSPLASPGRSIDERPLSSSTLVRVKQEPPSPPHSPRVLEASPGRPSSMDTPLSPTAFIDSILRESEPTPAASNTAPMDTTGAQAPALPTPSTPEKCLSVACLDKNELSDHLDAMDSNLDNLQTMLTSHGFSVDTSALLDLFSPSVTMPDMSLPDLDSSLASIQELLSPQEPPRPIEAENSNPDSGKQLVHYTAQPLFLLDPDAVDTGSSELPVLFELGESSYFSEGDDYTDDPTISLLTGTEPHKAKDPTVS

[3] = biological target: T1, Heat shock factor protein 1; assay: inhibition of MG132-induced HSE-luciferase signal, confirmation, cell-based, NIH3T3, luminescence, dose retest (AID 2382); type: functional;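 also: NIH3T3 fibroblasts with HSF1-driven luciferase reporter stressed by proteasome inhibitor MG132; luminescence from HSF1-driven luciferase expression after 8 hours of MG132 stress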
[4] = microbe, parasite or virus in culture; type: functional; conditions: Mycobacterium tuberculosis
[5] = inhibitors of intracellular T. cruzi replication, confirmation, NIH3T3 host cells, beta-gal luminescence (AID 2044); type: functional, cell-based;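 also: intracellular parasites grown in NIH/3T3 mouse fibroblasts as host cells; luminescent beta-galactosidase reporter signal from transgenic T. cruzi replicating inside host cells; inhibitors lower the luminescence signal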
[6] = cytotoxicity toward NIH3T3 fibroblasts, dose response, counter-screen, cell-based, ATP luminescence, mouse fibroblasts (AID 2010); type: functional;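 also: cells exposed to compound for about 90 hours before reading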
Cytochrome P450 2D6 = Cytochrome P450 2D6 (Homo sapiens, UniProt P10635);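 also: CYP2D6 member of a cytochrome P450 panel assay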
Chain of Cytochrome P450 2D6 (P10635 whole entry): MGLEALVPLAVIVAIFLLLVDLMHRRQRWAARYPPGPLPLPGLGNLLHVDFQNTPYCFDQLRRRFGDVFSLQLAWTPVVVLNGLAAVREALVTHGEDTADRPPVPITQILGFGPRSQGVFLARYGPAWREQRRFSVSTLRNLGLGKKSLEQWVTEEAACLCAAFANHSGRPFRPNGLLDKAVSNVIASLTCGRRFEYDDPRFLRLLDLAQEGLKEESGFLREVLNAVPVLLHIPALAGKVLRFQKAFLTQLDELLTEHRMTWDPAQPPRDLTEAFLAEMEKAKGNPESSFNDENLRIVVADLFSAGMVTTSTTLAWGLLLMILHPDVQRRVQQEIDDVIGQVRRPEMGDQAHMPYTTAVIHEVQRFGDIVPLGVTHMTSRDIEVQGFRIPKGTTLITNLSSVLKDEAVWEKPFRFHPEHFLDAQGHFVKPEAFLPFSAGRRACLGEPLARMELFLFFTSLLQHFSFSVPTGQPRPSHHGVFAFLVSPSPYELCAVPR

Cytochrome P450 1A2 = biological target: T2, Cytochrome P450 1A2 (Homo sapiens, UniProt P05177);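 also: PubChem cytochrome P450 panel assay, CYP1A2 panel member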
T2 sequence (P05177 whole entry): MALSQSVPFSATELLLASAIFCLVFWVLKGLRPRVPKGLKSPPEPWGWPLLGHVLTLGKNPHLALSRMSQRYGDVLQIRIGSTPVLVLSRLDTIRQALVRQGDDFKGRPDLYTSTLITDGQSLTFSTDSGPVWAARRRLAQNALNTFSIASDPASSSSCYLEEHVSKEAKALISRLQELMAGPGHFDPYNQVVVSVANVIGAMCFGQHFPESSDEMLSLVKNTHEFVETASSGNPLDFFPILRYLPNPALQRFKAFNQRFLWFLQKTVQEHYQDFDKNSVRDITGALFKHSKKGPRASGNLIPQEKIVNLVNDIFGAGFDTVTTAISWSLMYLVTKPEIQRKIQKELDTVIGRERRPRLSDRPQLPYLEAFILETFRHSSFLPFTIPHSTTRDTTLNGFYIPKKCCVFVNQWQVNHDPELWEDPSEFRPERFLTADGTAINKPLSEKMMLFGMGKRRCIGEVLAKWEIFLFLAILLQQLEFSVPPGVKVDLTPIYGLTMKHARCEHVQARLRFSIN

[7] = Luminescence Cell-Based Dose Response HTS to Identify Inhibitors of 5'UTR Stem-Loop Driven Prion Protein mRNA Translation in H4 Neuroglioblastoma Cells. [Related pubchem assays: 1827 (Project Summary), 1813 (Primary HTS)]; type: functional
[8] = biological target: T3, Corticotropin-releasing factor receptor 2/Corticotropin-releasing factor-binding protein (Homo sapiens, UniProt P24387+Q13324); assay: activators of CRF receptor 2 with binding protein – uHTS hits, confirmation (AID 602473); type: functional; conditions: read-out: EC50_Mean
T3 sequence (Q13324 whole entry): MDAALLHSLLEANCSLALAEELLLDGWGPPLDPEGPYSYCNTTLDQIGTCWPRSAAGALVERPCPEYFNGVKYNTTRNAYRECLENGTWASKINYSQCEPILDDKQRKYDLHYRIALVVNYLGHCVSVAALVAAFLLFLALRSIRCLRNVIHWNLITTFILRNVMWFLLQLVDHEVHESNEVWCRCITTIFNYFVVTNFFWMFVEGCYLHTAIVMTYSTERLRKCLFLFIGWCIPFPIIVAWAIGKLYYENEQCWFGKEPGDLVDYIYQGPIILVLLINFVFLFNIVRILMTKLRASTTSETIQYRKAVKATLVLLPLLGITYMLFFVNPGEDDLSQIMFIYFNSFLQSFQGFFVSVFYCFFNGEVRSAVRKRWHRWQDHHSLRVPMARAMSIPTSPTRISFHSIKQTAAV
T3 sequence (P24387 whole entry): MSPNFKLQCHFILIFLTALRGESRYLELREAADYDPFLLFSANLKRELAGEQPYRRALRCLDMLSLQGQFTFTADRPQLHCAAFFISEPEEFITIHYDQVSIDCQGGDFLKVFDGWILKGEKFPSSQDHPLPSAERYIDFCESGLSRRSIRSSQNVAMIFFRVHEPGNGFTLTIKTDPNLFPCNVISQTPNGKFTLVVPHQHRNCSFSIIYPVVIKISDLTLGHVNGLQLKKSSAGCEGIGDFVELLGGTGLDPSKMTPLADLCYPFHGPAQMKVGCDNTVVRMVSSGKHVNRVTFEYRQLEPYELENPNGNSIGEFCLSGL

Chain of Cytochrome P450 2C9 (P11712 whole entry): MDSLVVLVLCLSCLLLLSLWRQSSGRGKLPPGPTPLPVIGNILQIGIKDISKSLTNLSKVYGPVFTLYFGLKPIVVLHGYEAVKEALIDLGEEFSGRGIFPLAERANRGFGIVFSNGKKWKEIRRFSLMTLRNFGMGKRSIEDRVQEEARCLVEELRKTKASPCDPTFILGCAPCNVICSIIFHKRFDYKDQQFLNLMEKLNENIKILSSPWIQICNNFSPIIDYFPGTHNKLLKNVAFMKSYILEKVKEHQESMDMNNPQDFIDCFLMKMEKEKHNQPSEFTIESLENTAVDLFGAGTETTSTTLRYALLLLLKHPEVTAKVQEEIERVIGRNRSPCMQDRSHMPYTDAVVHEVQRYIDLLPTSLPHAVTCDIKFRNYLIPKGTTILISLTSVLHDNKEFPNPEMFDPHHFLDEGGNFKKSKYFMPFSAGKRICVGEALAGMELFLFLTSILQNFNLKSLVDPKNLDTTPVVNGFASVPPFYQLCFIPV
Chain of Cytochrome P450 2C19 (P33261 whole entry): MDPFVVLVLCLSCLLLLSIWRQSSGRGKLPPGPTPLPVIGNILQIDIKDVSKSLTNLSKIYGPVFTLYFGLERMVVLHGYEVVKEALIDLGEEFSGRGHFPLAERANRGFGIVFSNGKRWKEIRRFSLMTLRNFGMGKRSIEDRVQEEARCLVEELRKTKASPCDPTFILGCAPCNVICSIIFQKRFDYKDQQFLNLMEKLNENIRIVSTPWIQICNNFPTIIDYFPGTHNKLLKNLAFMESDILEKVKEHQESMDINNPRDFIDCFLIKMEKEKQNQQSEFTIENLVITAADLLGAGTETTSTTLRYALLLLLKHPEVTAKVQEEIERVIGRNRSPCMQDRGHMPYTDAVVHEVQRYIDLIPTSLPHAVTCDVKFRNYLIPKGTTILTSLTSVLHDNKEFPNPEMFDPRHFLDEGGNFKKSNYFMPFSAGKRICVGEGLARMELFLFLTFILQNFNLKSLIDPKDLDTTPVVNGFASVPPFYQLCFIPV

O=C(NCc1ccc(F)cc1)C1CCN(S(=O)(=O)N2CCCCC2)CC1
AC50 (Cytochrome P450 2C9): 10 µM (inconclusive) | AC50 (Cytochrome P450 2C19; read-out: AC50): 31.6 µM (inconclusive) | AC50 (Cytochrome P450 3A4): 14.1 µM (inconclusive)

O=C(c1ccco1)N1CCN=C1SCc1cccc(Cl)c1
AC50 [1]: 18.1 µM (active)

Cc1cc(C)c2cc(CN(Cc3ccco3)C(S)=NCC3CCCO3)c(O)nc2c1 (configuration not stated)
EC50 [2]: > 260 µM (inactive)

CCCCn1cc(S(=O)(=O)c2ccccc2)c(=O)c2cc(C)ccc21
EC50 [3]: > 195 µM (not active)

COc1cccc(N/C([S-])=C(/C(=O)c2cc(C)n(-c3ccccc3F)c2C)[n+]2ccc(N(C)C)cc2)c1
CC50 [4]: > 40 µM (active) | EC50 [5]: 0.645 µM (active) | EC50 [6]: > 60 µM (not active)

O[C@@H]1C2CCCC1[C@]1(O)CCCCC1C2 (some centres not stated)
EC50 [2]: > 260 µM (inactive)

O=C(COc1ccc(Cl)cc1)NCCCNC(=O)c1ccccn1
EC50 [2]: > 260 µM (inactive)

CCOc1cc(-c2c(C#N)c(O)nc3c2c(C)nn3-c2ccc(F)cc2)ccc1O
CC50 [4]: > 40 µM (active)

O=S(=O)(c1ccccc1)N1CCC2(CCN(Cc3ccncc3)CC2)CC1
AC50 (Cytochrome P450 2C9): 25.1 µM (inconclusive) | AC50 (Cytochrome P450 2D6): 25.1 µM (inconclusive)

O=C(COC(=O)C1CC2C=CC1C2)Nc1ccc2c(c1)OC(F)(F)O2 (configuration not stated)
EC50 [2]: > 260 µM (inactive)

COc1ccc(OC)c(NC(=O)CSCC(=O)O)c1
EC50 [3]: > 195 µM (not active)

Cc1cccc(N(C(=O)c2ccc(CN3CCOCC3)o2)C(C(=O)NC(C)(C)C)c2ccc(F)cc2)c1 (configuration not stated)
EC50 [2]: > 260 µM (inactive)

CCN(CC)C(=S)SCC(=O)Nc1nc(=O)c2ccccc2s1
EC50 [3]: > 195 µM (not active)

Cn1c(NCC(O)c2ccccc2)nc2c1c(=O)n(Cc1ccc(Cl)c(Cl)c1)c(=O)n2C (configuration not stated)
CC50 [4]: 25.5 µM (active)

c1coc(CN2CCN(C(c3cccs3)c3nnnn3C3CCCC3)CC2)c1 (configuration not stated)
AC50 (Cytochrome P450 2C9): 31.6 µM (inconclusive)

CSc1ccc(C#N)cc1NC(=O)c1cccc(Cl)c1
AC50 (Cytochrome P450 2C9): 39.8 µM (inconclusive) | AC50 (Cytochrome P450 2D6): 10 µM (inconclusive)

COc1ccc2[nH]c(C(=O)c3ccccc3)cc2c1
AC50 (Cytochrome P450 2C9): 39.8 µM (inconclusive)

CSc1cccc(NC(=O)c2ccc(Cl)nc2)c1
AC50 (Cytochrome P450 2C9): 39.8 µM (inconclusive) | AC50 (Cytochrome P450 2D6): 14.1 µM (inconclusive) | AC50 (Cytochrome P450 2C19; read-out: AC50): 25.1 µM (inconclusive)

CSCCC1NC(=O)N(CC(=O)N2N=C(c3ccc(Cl)cc3)CC2c2ccco2)C1=O (configuration not stated)
CC50 [4]: > 40 µM (active)

CCN1C/C(=C\c2cccc(C)c2)c2nc3ccccc3c(C(=O)O)c2C1
AC50 (Cytochrome P450 2C9): 8.91 µM (inconclusive) | AC50 (Cytochrome P450 2D6): 17.8 µM (inconclusive) | AC50 (Cytochrome P450 3A4): 25.1 µM (inconclusive)

CCCCN1C(=O)CN(CCc2ccccc2)C(=O)C1c1ccc(OC)cc1 (configuration not stated)
AC50 (Cytochrome P450 2C9): 20 µM (inconclusive) | AC50 (Cytochrome P450 2D6): 39.8 µM (inconclusive)

CCOC(=O)C1=C(c2ccccc2)NC(SC)=C(C#N)C1c1ccco1 (configuration not stated)
EC50 [2]: > 260 µM (inactive)

COc1ccc(NC(C)C(=O)Nc2ccc(C(C)(C)C)cc2)cc1Cl (configuration not stated)
CC50 [4]: > 40 µM (active)

CCC(=O)c1ccc(OCC(O)CN2CCN(c3cccc(C(F)(F)F)c3)CC2)cc1 (configuration not stated)
CC50 [4]: > 40 µM (active)

Cc1ccc(S(=O)(=O)NC2c3cccc4cccc(c34)C2Sc2nncn2C)cc1 (configuration not stated)
EC50 [2]: > 260 µM (inactive)

Cc1nn(Cc2ccc(Cl)cc2)c(C)c1N
AC50 [1]: 28.5 µM (active)

CCOC(=O)C1(C)NC(c2ccc(O)cc2)C2C(=O)N(c3ccccc3)C(=O)C21 (configuration not stated)
EC50 [3]: 93.8 µM (active)

Cc1ccc(NC(=NO)c2nonc2N)cc1
AC50 [1]: 19.3 µM (active)

O=C(c1cc(C(F)(F)F)cc(C(F)(F)F)c1)N1CCC2(CCCN(c3ccncc3)C2)CC1
AC50 (Cytochrome P450 2C9): 31.6 µM (inconclusive) | AC50 (Cytochrome P450 2D6): 15.8 µM (inconclusive)

CCC(C)NC(=O)c1c(C)cc(=O)oc1C (configuration not stated)
AC50 (Cytochrome P450 2C9): 5.01 µM (inconclusive) | AC50 (Cytochrome P450 1A2): 28.2 µM (inconclusive)

CO[C@H]1OC[C@@]2(C)[C@@H]3C4=C(CN2C(=O)OC(C)(C)C)[C@H](C)[C@H](CO)[C@H](CO)[C@H]4CC[C@H]13
AC50 (Cytochrome P450 2C9): 20 µM (inconclusive) | AC50 (Cytochrome P450 2C19; read-out: AC50): 39.8 µM (inconclusive) | AC50 (Cytochrome P450 3A4): 10 µM (inconclusive)

O=C(Nc1ccc(Oc2cccc(C(F)(F)F)c2)nc1)c1cccs1
CC50 [4]: > 40 µM (active)

CN(c1ccccc1C(=O)N1CCN(c2ccccc2)CC1)S(C)(=O)=O
AC50 [1]: 2.93 µM (active)

COc1ccccc1C(CNC(=O)C(C)(C)Oc1ccc(Cl)cc1)N1CCCC1 (configuration not stated)
CC50 [4]: > 40 µM (active)

Oc1[nH]c2ccccc2c1C1=NCCCC1
AC50 [1]: 0.325 µM (active)

O=C(COC(=O)C1(c2ccccc2F)CCCC1)N1CCc2ccccc21
EC50 [3]: > 195 µM (not active)

CN(C)c1ccc(N=Nc2ccc(C(=O)O)cc2)cc1
EC50 [7]: 11.8 µM (active) | EC50 [3]: 1.68 µM (active)

O=C(c1ccccc1)c1cccn1CC(=O)N1CCN(c2ccccc2)CC1
AC50 [1]: 12.4 µM (active)

CCOC(=O)CSc1nc(O)c2cnn(-c3ccc(C)cc3)c2n1
AC50 (Cytochrome P450 2C9): 2.24 µM (inconclusive) | AC50 (Cytochrome P450 2C19): inconclusive | AC50 (Cytochrome P450 3A4): 3.16 µM (inconclusive)

COC(=O)CCC(=O)C1=C(N)CC(C)(C)CC1=O
EC50 [2]: > 260 µM (inactive)

COc1ccc(OC)c(NC(=O)CCN2CCN(c3ccccc3)CC2)c1
AC50 [1]: 3.7 µM (active)

COC(=O)c1c(C)[nH]c(O)c1/C=N/c1ccc(C(C)C)cc1
AC50 (Cytochrome P450 2C9): 28.2 µM (inconclusive) | EC50 [5]: 4.19 µM (active) | AC50 (Cytochrome P450 2C19; read-out: AC50): 25.1 µM (inconclusive) | EC50 [6]: > 60 µM (inconclusive) | EC50 [8]: > 53 µM (inactive) | AC50 (Cytochrome P450 3A4): 28.2 µM (inconclusive)

Cc1ccc(/C=N\NC(=O)Cc2noc3ccccc23)cc1
EC50 [3]: > 195 µM (not active)

CNC(=O)N(O)C1N(/N=C/c2c(F)cccc2Cl)C(=S)SC1(C)C (configuration not stated)
EC50 [2]: > 260 µM (inactive)

CCOC(=O)C(=O)/C(C#N)=C/Nc1ccccc1
EC50 [2]: 168 µM (active)

O=C(O)c1ccc(/N=c2\oc3cc(O)ccc3cc2C(=O)NCc2ccccc2)cc1
AC50 [1]: 1.71 µM (active)

CCC(=O)N(C)CCc1cc2c(c(OC)c1/C=N/Nc1ccc(C(=O)O)cc1)OCO2
AC50 [1]: 3.56 µM (active)

COc1cc(/C=N/NC(=O)c2ccc(CSc3nncn3C)cc2)cc(OC)c1O
AC50 [1]: 2.25 µM (active)

C/C(=N\NC(=O)c1nnn(-c2nonc2N)c1C(C)C)c1ccncc1
EC50 [3]: > 195 µM (not active)
